Consider 22 compounds from patent US20170107212A1, “NOVEL COMPOUNDS” (Bayer Pharma Aktiengesellschaft, priority 2014, published 2017).

Assay [1] deals with constitutive active colorectal cancer cell (CRC) Wnt pathway, HCT116 TOPFlash. Kind of assay: Cellular reporter assay, HCT116 Super TopFlash (constitutive active Wnt pathway), luciferase expression. The format is cell-based. The note with it: Homo sapiens, HCT-116, 36 h, HCT116 Super TopFlash reporter cells, 36 hours incubation, dilution series 50 μM to 15 nM. The method, then:
In order to discover and characterize small molecules which inhibit the constitutive active colorectal cancer cell (CRC) Wnt pathway, a cellular reporter assay was employed. The corresponding assay cell was generated by transfection of the colorectal cancer cell line HCT116 (ATCC, #CCL-247) with the Super TopFlash vector (Morin, Science 275, 1997, 1787-1790; Molenaar et al., Cell 86 (3), 1996, 391-399). The HCT116 cell line is cultivated at 37° C. and 5% CO2 in DMEM/F-12 (Life Technologies, #11320-074), supplemented with 2 mM glutamine, 20 mM HEPES, 1.4 mM pyruvate, 0.15% Na-bicarbonate and 10% foetal bovine serum (GIBCO, #10270), this cancer cell line is pathophysiological relevant since it carries a deletion of position S45 in the β-catenin gene, leading to constitutive active Wnt signaling. Stable transfectants were generated by cotransfection with pcDNA3 and selection of stable transfected cells with 1 mg/ml G418.
(§1) In preparation of the assay, the two cell lines were plated 24 hours before at 10000 cells per well of a 384 micro titre plate (MTP) in 30 μL growth medium. Selective inhibitory activity for small molecules on the mutated Wnt pathway was determined after parallel incubation of both (TOP and FOP) HCT116 reporter cell lines with a compound dilution series from 50 μM to 15 nM in steps of 3.16-fold dilutions in CAFTY buffer (130 mM NaCl, 5 mM KCl, 20 mM HEPES, 1 mM MgCl2, 5 mM NaHCO3, pH 7.4) containing 2 mM Ca^2+ and 0.01% BSA. The compounds were thereby serially prediluted in 100% DMSO and thereafter in addition 50 fold into the CAFTY compound dilution buffer (described above). From this dilution 10 μL were added to the cells in 30 μL growth medium and incubated for 36 hours at 37° C. and 5% CO2. Thereafter luciferase assay buffer (1:1 mixture of luciferase substrate buffer (20 mM Tricine, 2.67 mM MgSO4, 0.1 mM EDTA, 4 mM DTT, 270 μM Coenzyme A, 470 μM Luciferin, 530 μM ATP, ph adjusted to pH 7.8 with a sufficient volume of 5M NaOH) and Triton buffer (30 mL Triton X-100, 115 mL glycerol, 308 mg Dithiothreitol, 4.45 g Na2HPO4.2H2O, 3.03 g TRIS HCl, ad 1 l H20, pH 7.8) was added as equal volume to the compound solution on the cells to determine luciferase expression as a measure of Wnt signaling activity in a luminometer.

In assay [2] the test system is HCT116 FOPFlash. The assay is described as follows: Control reporter assay, HCT116 FOP control vector (non-functional TCF elements), luciferase expression. The note with it: Homo sapiens, HCT-116, 36 h, HCT116 FOP control reporter cells, 36 hours incubation, dilution series 50 μM to 15 nM. In kind it is cell-based. The method, then:
In a parallel approach, HCT116 cells were cotransfected with the FOP control vector and pcDNA3. The FOP vector is identical to the TOP construct, but it contains instead of functional TCF elements a randomized, non-functional sequence. For this transfection a stable transfected cell line was generated as well.
as §1

Take `CN1CCN(CC(=O)Nc2cc(C(=O)Nc3nnc(-c4cccnc4)s3)c(F)cc2OC(F)(F)F)CC1` [Example 77, 2-fluoro-5-{[(4-methylpiperazin-1-yl)acetyl]amino}-N-[5-(pyridin-3-yl)-1,3,4-thiadiazol-2-yl]-4-(trifluoromethoxy)benzamide]: the IC50 in assay [1] is 0.18 µM; in assay [2], at least 50 µM.

`Nc1ccc(-c2ccc(NC(=O)c3ccc(OC(F)(F)F)c(NC(=O)CN4CCOCC4)c3)nc2)cn1` [Example 15, N-(6′-amino-3,3′-bipyridin-6-yl)-3-[(morpholin-4-ylacetyl)amino]-4-(trifluoromethoxy)benzamide]: the values for the 50% inhibitory concentration (IC50) in assay [1] and in assay [2] were 0.0815 µM and at least 50 µM, respectively.

Consider `Cc1ccnc(-c2nnc(NC(=O)c3ccc(OC(F)(F)F)c(NC(=O)CN4CCOCC4)c3)s2)c1` [Example 93, N-[5-(4-methylpyridin-2-yl)-1,3,4-thiadiazol-2-yl]-3-[(morpholin-4-ylacetyl)amino]-4-(trifluoromethoxy)benzamide], for which the IC50 in assay [1] and in assay [2] was at least 50 µM each time.

For `Nc1cc(-c2nnc(NC(=O)c3ccc(OC(F)(F)F)c(NC(=O)CN4CCOCC4)c3)s2)ccn1` [Example 98, N-[5-(2-aminopyridin-4-yl)-1,3,4-thiadiazol-2-yl]-3-[(morpholin-4-ylacetyl)amino)-4-(trifluoromethoxy)benzamide], the IC50 in assay [1] and in assay [2] was at least 50 µM throughout.

On to `Nc1ccc(-c2nnc(NC(=O)c3ccc(OC(F)(F)F)c(NC(=O)C4(N5CCOCC5)CC4)c3)s2)cn1` [Example 49, N-[5-(6-aminopyridin-3-yl)-1,3,4-thiadiazol-2-yl]-3-({[1-(morpholin-4-yl)cyclopropyl]carbonyl}amino)-4-(trifluoromethoxy)benzamide], for which the IC50 was 0.31 µM in assay [1] and at least 50 µM in assay [2].

Turning to `COc1ccc(C(=O)Nc2nnc(-c3cnccc3C)s2)cc1NC(=O)CN1CCOCC1` [Example 106, 4-methoxy-N-[5-(4-methylpyridin-3-yl)-1,3,4-thiadiazol-2-yl]-3-[(morpholin-4-ylacetyl)amino]benzamide], the IC50 in assay [1] and in assay [2] was at least 50 µM throughout.

In the case of `O=C(CN1CCOCC1)Nc1cc(C(=O)Nc2ccc(-c3cccnc3)cn2)ccc1OC1CC1` [Example 118, N-(3,3′-bipyridin-6-yl)-4-(cyclopropyloxy)-3-[(morpholin-4-ylacetyl)amino]benzamide], the IC50 in assay [1] and in assay [2] was at least 50 µM throughout.

On to `O=C(Nc1nnc(-c2cncnc2)s1)c1ccc(OC(F)(F)F)c(NC(=O)C2(N3CCOCC3)CC2)c1` [Example 30, 3-({[1-(morpholin-4-yl)cyclopropyl]carbonyl}amino)-N-[5-(pyrimidin-5-yl)-1,3,4-thiadiazol-2-yl]-4-(trifluoromethoxy)benzamide], for which the IC50 was 0.535 µM in assay [1] and at least 50 µM in assay [2].

Consider `CN1CCN(CC(=O)Nc2cc(C(=O)Nc3nnc(-c4ccnc(N)c4)s3)ccc2OC(F)(F)F)CC1` [Example 90, N-[5-(2-aminopyridin-4-yl)-1,3,4-thiadiazol-2-yl]-3-{[(4-methylpiperazin-1-yl)acetyl]amino}-4-(trifluoromethoxy)benzamide], for which the IC50 in assay [1] is 7.4 µM; in assay [2], 31 µM.

Regarding `O=C(CN1CCOCC1)Nc1cc(C(=O)Nc2nnc(-c3ncccc3F)s2)ccc1OC(F)(F)F` [Example 96, N-[5-(3-fluoropyridin-2-yl)-1,3,4-thiadiazol-2-yl]-3-[(morpholin-4-ylacetyl)amino]-4-(trifluoromethoxy}benzamide], the IC50 in assay [1] and in assay [2] was at least 50 µM throughout.

Turning to `O=C(CN1CCOCC1)Nc1cc(C(=O)Nc2ccc(-c3cncnc3)cn2)ccc1OC(F)(F)F` [Example 1, 3-[(morpholin-4-ylacetyl)amino]-N-[5-(pyrimidin-5-yl)pyridin-2-yl]-4-(trifluoromethoxy)benzamide], the IC50 in assay [1] is 0.145 µM; in assay [2], at least 50 µM.

For the compound `Cc1cncc(-c2nnc(NC(=O)c3ccc(OC(F)(F)F)c(NC(=O)CN4CCOCC4)c3)s2)c1` [Example 56, N-[5-(5-methylpyridin-3-yl)-1,3,4-thiadiazol-2-yl]-3-[(morpholin-4-ylacetyl)amino]-4-(trifluoromethoxy)benzamide], the IC50 in assay [1] is 0.47 µM; in assay [2], at least 50 µM.

Take `O=C(CN1CCOCC1)Nc1cc(C(=O)Nc2ccc(-c3cccnc3)cn2)ccc1OC(F)(F)F` [Example 14, N-(3,3′-bipyridin-6-yl)-3-[(morpholin-4-ylacetyl)amino]-4-(trifluoromethoxy)benzamide]: the figures for the IC50 in assay [1] and in assay [2] were 0.0423 µM and at least 50 µM, respectively.

For the compound `CN1CCN(CC(=O)Nc2cc(C(=O)Nc3cnc(-c4ccc(N)nc4)cn3)ccc2OC(F)(F)F)CC1` [Example 54, N-[5-(6-aminopyridin-3-yl)pyrazin-2-yl]-3-{[(4-methylpiperazin-1-yl)acetyl]amino}-4-(trifluoromethoxy)benzamide], the results for the IC50 in assay [1] and in assay [2] were 0.0355 µM and at least 50 µM, respectively.

Consider `O=C(CN1CCOCC1)Nc1cc(C(=O)Nc2nnc(-c3cnccn3)s2)ccc1OC1CC1` [Example 117, 4-(cyclopropyloxy)-3-[(morpholin-4-ylacetyl)amino]-N-[5-(pyrazin-2-yl)-1,3,4-thiadiazol-2-yl]benzamide], for which the IC50 in assay [1] and in assay [2] was at least 50 µM in each case.

With `Nc1ncc(-c2ccc(NC(=O)c3ccc(OC(F)(F)F)c(NC(=O)CN4CCOCC4)c3)nc2)cn1` [Example 17, N-[5-(2-aminopyrimidin-5-yl)pyridin-2-yl]-3-[(morpholin-4-ylacetyl)amino]-4-(trifluoromethoxy)benzamide], the IC50 was 0.12 µM in assay [1] and at least 50 µM in assay [2].

On to `Cc1ncccc1-c1nnc(NC(=O)c2ccc(OC(F)(F)F)c(NC(=O)CN3CCOCC3)c2)s1` [Example 28, N-[5-(2-methylpyridin-3-yl)-1,3,4-thiadiazol-2-yl]-3-[(morpholin-4-ylacetyl)amino]-4-(trifluoromethoxy)benzamide], for which the IC50 was 1.14 µM in assay [1] and at least 50 µM in assay [2].

In the case of `Cc1nc(-c2nnc(NC(=O)c3ccc(OC(F)(F)F)c(NC(=O)CN4CCN(C)CC4)c3)s2)cs1` [Example 44, 3-{[(4-methylpiperazin-1-yl)acetyl]amino}-N-[5-(2-methyl-1,3-thiazol-4-yl)-1,3,4-thiadiazol-2-yl]-4-(trifluoromethoxy)benzamide], the IC50 in assay [1] was 0.423 µM; in assay [2] it was at least 50 µM.

Regarding `Nc1ccc(-c2nnc(NC(=O)c3ccc(OC4CC4)c(NC(=O)CN4CCOCC4)c3)s2)cn1` [Example 119, N-[5-(6-aminopyridin-3-yl)-1,3,4-thiadiazol-2-yl]-4-(cyclopropyloxy)-3-[(morpholin-4-ylacetyl)amino]benzamide], the IC50 in assay [1] and in assay [2] was at least 50 µM in each case.

Turning to `O=C(CN1CCOCC1)Nc1cc(C(=O)Nc2nnc(-c3cccnc3)s2)ccc1OC(F)(F)F` [Example 82, 3-[(morpholin-4-ylacetyl)amino]-N-[5-(pyridin-3-yl)-1,3,4-thiadiazol-2-yl]-4-(trifluoromethoxy)benzamide], the half-maximal inhibitory concentration (IC50) was 21.2 µM in assay [1] and at least 50 µM in assay [2].

With `Cc1ccncc1-c1nnc(NC(=O)c2cc(NC(=O)CN3CCN(C)CC3)c(OC(F)(F)F)cc2F)s1` [Example 78, 2-fluoro-5-{[(4-methylpiperazin-1-yl)acetyl]amino}-N-[5-(4-methylpyridin-3-yl)-1,3,4-thiadiazol-2-yl]-4-(trifluoromethoxy)benzamide], the results for the IC50 in assay [1] and in assay [2] were 0.24 µM and at least 50 µM, respectively.

For `Cc1nccnc1-c1nnc(NC(=O)c2ccc(OC(F)(F)F)c(NC(=O)CN3CCOCC3)c2)s1` [Example 91, N-[5-(3-methylpyrazin-2-yl)-1,3,4-thiadiazol-2-yl]-3-[(morpholin-4-ylacetyl)amino]-4-(trifluoromethoxy)benzamide], the IC50 in assay [1] is 35.6 µM; in assay [2] it was at least 50 µM.
